Laboratory results from publication PMC9551036, “A selective and orally bioavailable VHL-recruiting PROTAC achieves SMARCA2 degradation in vivo” (Nature Communications, 2022).
Values joined by “and” are separate entries in the source; they are usually repeats but may differ in a detail not shown here. Identical values can stand only once. Like-named read-outs stand apart in the source and are kept apart here.

What was measured:
NCI-H1568 cells = assay: Cell viability assay (CellTiter Glo) in NCI-H1568; type: cell-based, human; settings: for EC50: read-out: EC50 cell proliferation (CellTiter Glo); for IC50: NCI-H1568, (18h), CellTiter Glo, individual replicates, read-out: NCI-H1568 (18h) CTG
Procedure: 500–2000 cells were seeded in white, clear bottom 96-well plates (Corning or Perkin Elmer) in 180–200 µl medium per well. The next day, compounds were added using a digital dispenser and a T0 sample was measured for reference. […], and viability (luminescence) was measured using CellTiter Glo or CellTiter Glo 2.0 (Promega) according to manufacturer’s instructions after equilibrating cells and reagents at room temperature and 10–20 min incubation time while shaking.

PBRM1 BD = molecular target: T1, PBRM1 BD (Homo sapiens, UniProt Q86U86); assay: TR-FRET binary and ternary (PROTAC + VCB) affinity, PBRM1 bromodomain; type: binding; settings: individual replicates
T1 construct: GST (TEV site) (N); made in house; host or cells: Escherichia coli BL21(DE3)

PBRM1BD5 = molecular target: T2, PBRM1BD5 (Homo sapiens, UniProt Q86U86); assay: TR-FRET ternary complex affinity and cooperativity, PBRM1; type: binding
T2 construct: GST (TEV site) (N); His6 (TEV site) (N, cleaved yes); made in house; host or cells: PBRM1^BD5: Escherichia coli BL21(DE3)
T2 sequence (Q86U86 645-766): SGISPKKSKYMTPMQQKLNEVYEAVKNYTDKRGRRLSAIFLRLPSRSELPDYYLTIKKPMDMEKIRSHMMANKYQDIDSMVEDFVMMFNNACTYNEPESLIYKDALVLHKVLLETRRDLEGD

SMARCA2 [1] = molecular target: T3, SMARCA2 (Homo sapiens, UniProt P51531); assay: SMARCA2 capillary electrophoresis protein assay in RKO cells; type: cell-based; set-up: endogenous in cells; host or cells: RKO, NCI-H1568, A549, HCT116, LU99, HCC-364, HCT-15, HCC4006, SK-N-AS; settings: for Dmax: RKO
T3 sequence (P51531 whole entry): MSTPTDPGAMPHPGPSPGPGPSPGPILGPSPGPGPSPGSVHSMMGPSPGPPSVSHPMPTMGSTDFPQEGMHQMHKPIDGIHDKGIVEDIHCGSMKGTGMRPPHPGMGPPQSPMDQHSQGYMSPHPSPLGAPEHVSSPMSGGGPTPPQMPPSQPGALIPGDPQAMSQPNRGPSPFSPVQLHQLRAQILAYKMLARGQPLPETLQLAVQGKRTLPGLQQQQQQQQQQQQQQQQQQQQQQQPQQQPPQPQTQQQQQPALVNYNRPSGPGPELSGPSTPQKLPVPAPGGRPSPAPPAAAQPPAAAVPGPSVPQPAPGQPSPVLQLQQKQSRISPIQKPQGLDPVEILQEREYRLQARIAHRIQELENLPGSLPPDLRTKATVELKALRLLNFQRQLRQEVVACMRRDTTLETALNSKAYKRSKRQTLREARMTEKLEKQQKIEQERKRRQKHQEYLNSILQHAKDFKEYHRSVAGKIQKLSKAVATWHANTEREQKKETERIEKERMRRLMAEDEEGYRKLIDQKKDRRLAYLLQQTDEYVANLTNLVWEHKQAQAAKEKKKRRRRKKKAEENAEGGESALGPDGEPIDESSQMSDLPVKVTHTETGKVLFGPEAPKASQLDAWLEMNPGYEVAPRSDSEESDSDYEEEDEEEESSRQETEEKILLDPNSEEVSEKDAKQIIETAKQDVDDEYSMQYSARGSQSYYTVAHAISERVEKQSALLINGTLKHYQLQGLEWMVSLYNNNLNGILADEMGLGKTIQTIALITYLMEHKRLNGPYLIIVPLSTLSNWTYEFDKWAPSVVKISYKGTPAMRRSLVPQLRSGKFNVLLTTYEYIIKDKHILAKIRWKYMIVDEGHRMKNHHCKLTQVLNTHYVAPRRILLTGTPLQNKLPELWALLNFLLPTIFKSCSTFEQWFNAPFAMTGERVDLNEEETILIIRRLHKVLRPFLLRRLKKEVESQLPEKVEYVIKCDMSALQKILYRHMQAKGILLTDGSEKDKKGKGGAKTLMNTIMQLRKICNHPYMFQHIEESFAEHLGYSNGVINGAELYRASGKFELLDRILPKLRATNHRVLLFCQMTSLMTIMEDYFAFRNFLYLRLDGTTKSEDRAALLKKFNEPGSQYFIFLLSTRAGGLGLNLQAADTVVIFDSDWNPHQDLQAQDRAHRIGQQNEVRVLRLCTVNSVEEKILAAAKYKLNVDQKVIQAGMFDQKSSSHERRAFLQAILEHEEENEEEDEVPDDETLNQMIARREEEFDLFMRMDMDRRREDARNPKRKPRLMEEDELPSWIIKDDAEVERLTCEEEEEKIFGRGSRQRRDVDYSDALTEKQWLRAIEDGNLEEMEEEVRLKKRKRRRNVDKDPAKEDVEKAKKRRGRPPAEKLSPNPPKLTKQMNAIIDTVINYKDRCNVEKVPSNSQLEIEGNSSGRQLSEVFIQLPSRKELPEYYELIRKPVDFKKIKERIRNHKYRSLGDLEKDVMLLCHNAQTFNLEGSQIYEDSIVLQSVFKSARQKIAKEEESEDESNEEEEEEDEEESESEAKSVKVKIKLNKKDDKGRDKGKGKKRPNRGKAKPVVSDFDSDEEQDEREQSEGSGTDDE
Procedure: 130,000–200,000 cells were seeded in 24-well plates and incubated until settled down or overnight. Compounds were dissolved in DMSO and added to cells in indicated concentrations using a digital dispenser following an optional media change. […] For SMARCA2/4 half-life determination, 150,000 or 200,000 cells were seeded in 24-well plates. […] For SMARCA2/4 re-synthesis measurements, 200,000 cells were seeded in 24-well plates. […] Medium was removed, cells were washed with PBS and lysed with 80 µl Lysis Buffer (MSD Tris Lysis Buffer (#R60TX-2) + Halt Inhibitor Cocktail (100x) + Benzonase 0.5 µL/ml). Samples were frozen at −80 °C and thawed at room temperature before use. Samples were transferred to a V-bottom plate and insoluble debris was pelleted by centrifugation for 5 min at maximum speed. The supernatant was transferred to a fresh plate. Master Mix and Ladder were prepared according to manufacturer’s instructions for 12–230 kDa Wes Separation Module, 8 × 25 capillary cartridges, Protein Simple #SM-W004 with Anti-Rabbit Detection Module for Wes, Peggy Sue or Sally Sue, Protein Simple #DM-001. 4.8 µl lysate were mixed with 1.2 µl Master Mix to achieve a protein concentration of ~0.5 µg/µl. […] Wes plates were prepared and run according to manufacturer’s instructions. Proteins were quantified with accompanying Compass Software. SMARCA2/4 protein levels were normalised to GAPDH. […] Where applicable, curves were fitted using a 4-parametric logistic model.

SMARCA2 [2] = molecular target: T3, SMARCA2; assay: Imaging-based SMARCA2 protein assay in RKO cells; type: cell-based; set-up: endogenous in cells; host or cells: RKO, NCI-H1568, A549, HCT116, LU99, HCC-364, HCT-15, HCC4006, SK-N-AS; settings: individual replicates
Procedure: 1250 cells per well in 60 µl medium were plated in flat bottom, poly-lysin coated 384-well plates (CellCarrier Ultra, Perkin Elmer). The next day, test compounds (10 µl of serial dilutions) and DMSO controls were diluted in DMEM medium such that the final DMSO content was <1% or were added using an ultrasound dispensing system. 4 wells were reserved for a background measurement. […] After aspirating the fixing solution, the cells were washed once with 25 µl PBS. 25 µl of blocking buffer (10% goat serum in PBS) was added and cells were incubated for 30 min, then washed once with PBS. […] Cells were again washed once with PBS. […] The cell layer was then washed once with 25 µl PBS, the wells were filled with 25 µl PBS and the plates were sealed with an adhesive sheet. They were then imaged on the Opera Phoenix (mean intensity in the nucleus). […] EC50 values were computed using a 4-parametric logistic model.

[3] = molecular target: VCB: PROTAC: SMARCA2^BD ternary complex (Homo sapiens, UniProt P40337+P51531); assay: TR-FRET ternary complex affinity and cooperativity, SMARCA2; type: binding; set-up: P51531-2, residues 1373-1493 with additional N-terminal SM residues; GST (TEV site) (N); His6 (TEV site) (N, cleaved yes); made in house; host or cells: SMARCA2^BD: Escherichia coli BL21(DE3)
VCB: PROTAC: SMARCA2^BD ternary complex, sequence (P51531 with tags, fused parts or gaps isoform P51531-2): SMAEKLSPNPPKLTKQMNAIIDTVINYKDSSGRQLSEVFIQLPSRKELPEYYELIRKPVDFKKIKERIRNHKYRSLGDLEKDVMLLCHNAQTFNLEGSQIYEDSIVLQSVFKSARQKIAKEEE
VCB: PROTAC: SMARCA2^BD ternary complex, sequence (P40337 54-213): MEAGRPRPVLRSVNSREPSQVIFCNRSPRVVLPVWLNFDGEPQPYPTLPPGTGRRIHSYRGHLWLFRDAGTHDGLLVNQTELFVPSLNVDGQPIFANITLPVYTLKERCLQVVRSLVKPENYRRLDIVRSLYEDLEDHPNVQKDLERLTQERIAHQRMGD
VCB: PROTAC: SMARCA2^BD ternary complex, sequence (Q15369 17-112 partner): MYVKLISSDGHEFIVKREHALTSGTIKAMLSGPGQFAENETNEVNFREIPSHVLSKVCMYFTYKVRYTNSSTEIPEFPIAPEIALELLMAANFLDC
VCB: PROTAC: SMARCA2^BD ternary complex, sequence (Q15370 1-104 partner): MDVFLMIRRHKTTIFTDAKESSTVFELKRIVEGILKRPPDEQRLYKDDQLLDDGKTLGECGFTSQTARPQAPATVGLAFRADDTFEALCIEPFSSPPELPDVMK

[4] = PROTAC + VCB, read-out: Ternary PBRM1 BD EC50 (PROTAC + VCB)
[5] = binary, PROTAC alone, read-out: PBRM1 EC50
[6] = TR-FRET competition for PBRM1BD5, without VCB, mean ± SD, read-out: TR-FRET PBRM1BD EC50
[7] = 4h, read-out: RKO (4h) SMARCA2 DC50
[8] = 18h, read-out: RKO (18h) SMARCA2 DC50
[9] = PROTAC + VCB, individual replicates, read-out: Ternary SMARCA2 BD EC50 (PROTAC + VCB)
[10] = TR-FRET competition for SMARCA2BD, + VCB, mean ± SD, read-out: TR-FRET Ternary SMARCA2BD EC50 (PROTAC + VCB)

Compound	EC50 (NCI-H1568 cells; NCI-H1568 ([…]), mean ± SD)	IC50 (NCI-H1568 cells)	EC50 (PBRM1 BD; [4])	EC50 (PBRM1 BD; [5])	EC50 (PBRM1BD5; [6])	DC50 (SMARCA2 [1]; RKO (4 h), mean ± SD)	DC50 (SMARCA2 [1]; RKO (18 h), mean ± SD)	DC50 (SMARCA2 [2]; [7])	DC50 (SMARCA2 [2]; [8])	EC50 [3, 9]	SMARCA2 Dmax (SMARCA2 [1]; RKO (18 h), mean ± SD)	EC50 [3, 10]	EC50 (NCI-H1568 cells; Homo sapiens, NCI-H1568, […])	Dmax (SMARCA2 [1]; RKO (4 h), mean ± SD)	Dmax (SMARCA2 [1]; RKO (18 h), mean ± SD)	SMARCA2/4 selectivity improvement on linker elongation (compound 11 compared with compound 6) (SMARCA2 [1]; all-carbon linker series)	EC50 (PBRM1 BD; PBRM1 EC50, binary, PROTAC alone)	EC50 (PBRM1 BD; Ternary PBRM1 BD EC50 (PROTAC + VCB), PROTAC + VCB)	EC50 (PBRM1BD5)
CN1CCN(c2nc(=O)c3ccccc3o2)CC1 [compound 14]	> 10 µM	> 10 µM	> 10 µM	> 10 µM	> 10 µM	> 25 µM	> 25 µM	> 25 µM	> 25 µM	> 10 µM									
Cc1ncsc1-c1ccc(CNC(=O)[C@@H]2C[C@@H](O)CN2C(=O)[C@@H](NC(=O)C2(F)CC2)C(C)(C)C)c(OCCOCCOCCN2CCC(c3ccc4c(c3)n(C3CCCC3)c3nc(=O)c5c(Br)cccc5n43)CC2)c1 [compound 21]	0.223 ± 0.03 µM	0.257 µM and 0.199 µM and 0.216 µM	0.0339 µM and 0.0378 µM and 0.0414 µM	0.0719 µM and 0.0802 µM and 0.0774 µM	0.076 ± 0.004 µM	> 25 µM	0.106 ± 0.038 µM	> 25 µM	0.0775 µM and 0.151 µM and 0.1 µM	0.138 µM and 0.122 µM and 0.143 µM	67± 8%	0.134 ± 0.011 µM							
CN1CCN(c2nc(=O)c3c(I)cccc3o2)CC1 [compound 16]	> 10 µM	> 10 µM	> 10 µM	> 10 µM	> 10 µM	> 25 µM	> 25 µM	> 25 µM	> 25 µM	> 10 µM									
Cc1ncsc1-c1ccc([C@H](CCCCCN2CCC(c3ccc4c(c3)n(C3CCCC3)c3nc(=O)c5c(Br)cccc5n43)CC2)NC(=O)[C@@H]2C[C@@H](O)CN2C(=O)[C@@H](NC(=O)C2(F)CC2)C(C)(C)C)cc1 [compound 11]		0.00872 µM and 0.0104 µM and 0.00564 µM and 0.00909 µM and 0.00295 µM and 0.00631 µM	0.00317 µM and 0.00426 µM and 0.00396 µM	0.0431 µM and 0.05 µM and 0.0411 µM and 0.0315 µM	0.041 ± 0.008 µM	0.002 ± 0.001 µM	0.001 ± 0.0001 µM	0.00171 µM and 0.000766 µM and 0.00204 µM and 0.00368 µM	0.000942 µM and 0.00107 µM and 0.000993 µM and 0.000885 µM	0.0266 µM and 0.0197 µM and 0.0143 µM and 0.0296 µM and 0.0319 µM and 0.0315 µM and 0.0263 µM and 0.0359 µM and 0.0209 µM and 0.0215 µM and 0.0244 µM		0.025 ± 0.006 µM	0.007 ± 0.003 µM	73 ± 6%	87 ± 2%	two- to threefold			
Cc1ncsc1-c1ccc([C@H](CC[C@H](C)CCN2CCC(c3ccc4c(c3)n(C3CCCC3)c3nc(=O)c5c(Br)cccc5n43)CC2)NC(=O)[C@@H]2C[C@H](O)CN2C(=O)[C@@H](NC(=O)C2(F)CC2)C(C)(C)C)cc1 [compound 12]		0.411 µM and 0.372 µM and 0.0859 µM				> 25 µM		> 25 µM	10.7 µM and 4.78 µM and 8.27 µM and > 25 µM	0.148 µM and 0.161 µM and 0.256 µM and 0.158 µM		0.181 ± 0.044 µM	0.236 ± 0.175 µM		82 ± 16%		0.0677 µM and 0.0821 µM and 0.0749 µM	0.0679 µM and 0.0858 µM and 0.0797 µM	0.075 ± 0.006 µM
